# Experimental data reported in publication PMC5373689 (Science (New York, N.Y.), 2016).
# What was measured:
# CatSper = CatSper (Homo sapiens, UniProt Q7RTX7+Q86XQ3+Q8NEC5+Q96P56); test: whole-cell patch clamp of human spermatozoa; type: cell-based
# [1] = biological target: T1, α/β hydrolase domain–containing protein 2 (ABHD2) (Homo sapiens, UniProt P08910); test: monoacylglycerol hydrolysis by recombinant ABHD2; type: cell-based
# T1 sequence (P08910 1-425): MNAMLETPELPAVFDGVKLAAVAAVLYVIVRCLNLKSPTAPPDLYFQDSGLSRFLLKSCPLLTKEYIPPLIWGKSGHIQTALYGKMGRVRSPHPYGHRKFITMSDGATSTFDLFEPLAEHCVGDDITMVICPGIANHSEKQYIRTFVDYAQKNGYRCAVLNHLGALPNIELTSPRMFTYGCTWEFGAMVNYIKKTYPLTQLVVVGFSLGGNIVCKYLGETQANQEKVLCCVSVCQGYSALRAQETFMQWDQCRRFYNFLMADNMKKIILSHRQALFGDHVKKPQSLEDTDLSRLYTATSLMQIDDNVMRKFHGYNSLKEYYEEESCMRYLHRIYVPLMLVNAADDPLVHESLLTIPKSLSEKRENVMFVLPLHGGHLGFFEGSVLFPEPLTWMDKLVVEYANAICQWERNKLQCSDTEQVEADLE
# Chain of CatSper (Q8NEC5 whole entry, the tested form may be a part): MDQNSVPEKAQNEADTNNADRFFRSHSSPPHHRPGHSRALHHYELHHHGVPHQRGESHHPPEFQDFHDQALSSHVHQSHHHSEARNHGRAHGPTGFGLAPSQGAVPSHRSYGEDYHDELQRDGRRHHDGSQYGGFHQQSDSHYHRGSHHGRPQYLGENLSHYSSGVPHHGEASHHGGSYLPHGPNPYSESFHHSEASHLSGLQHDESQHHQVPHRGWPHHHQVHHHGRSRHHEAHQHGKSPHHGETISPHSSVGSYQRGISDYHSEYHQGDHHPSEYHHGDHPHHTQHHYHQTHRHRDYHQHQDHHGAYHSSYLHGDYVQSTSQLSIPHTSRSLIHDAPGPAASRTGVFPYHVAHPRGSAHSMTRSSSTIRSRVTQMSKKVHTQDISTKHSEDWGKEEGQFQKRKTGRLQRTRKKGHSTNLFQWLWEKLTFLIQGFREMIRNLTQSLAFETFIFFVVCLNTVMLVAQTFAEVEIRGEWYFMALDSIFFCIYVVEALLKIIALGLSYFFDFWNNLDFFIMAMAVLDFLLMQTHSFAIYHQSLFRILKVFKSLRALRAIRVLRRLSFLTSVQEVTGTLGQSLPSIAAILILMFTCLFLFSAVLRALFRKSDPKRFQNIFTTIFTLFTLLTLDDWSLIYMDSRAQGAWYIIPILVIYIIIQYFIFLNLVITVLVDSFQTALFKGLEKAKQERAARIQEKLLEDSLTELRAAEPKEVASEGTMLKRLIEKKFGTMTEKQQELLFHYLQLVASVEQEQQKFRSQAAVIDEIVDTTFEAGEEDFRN
# Chain of CatSper (Q96P56 whole entry, the tested form may be a part): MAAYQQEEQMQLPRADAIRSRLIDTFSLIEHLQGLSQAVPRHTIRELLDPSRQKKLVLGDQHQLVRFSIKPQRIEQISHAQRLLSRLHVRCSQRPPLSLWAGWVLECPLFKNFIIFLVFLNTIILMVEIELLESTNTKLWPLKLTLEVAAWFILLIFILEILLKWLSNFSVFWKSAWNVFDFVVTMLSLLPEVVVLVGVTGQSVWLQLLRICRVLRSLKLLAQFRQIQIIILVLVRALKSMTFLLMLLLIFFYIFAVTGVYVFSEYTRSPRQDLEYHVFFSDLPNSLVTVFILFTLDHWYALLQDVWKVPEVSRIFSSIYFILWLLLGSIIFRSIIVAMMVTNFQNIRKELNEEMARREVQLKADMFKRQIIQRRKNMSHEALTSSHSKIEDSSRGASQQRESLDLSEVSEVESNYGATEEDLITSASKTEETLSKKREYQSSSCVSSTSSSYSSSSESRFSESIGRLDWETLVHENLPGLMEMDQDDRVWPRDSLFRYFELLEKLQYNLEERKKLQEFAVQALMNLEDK
# Chain of CatSper (Q86XQ3 whole entry, the tested form may be a part): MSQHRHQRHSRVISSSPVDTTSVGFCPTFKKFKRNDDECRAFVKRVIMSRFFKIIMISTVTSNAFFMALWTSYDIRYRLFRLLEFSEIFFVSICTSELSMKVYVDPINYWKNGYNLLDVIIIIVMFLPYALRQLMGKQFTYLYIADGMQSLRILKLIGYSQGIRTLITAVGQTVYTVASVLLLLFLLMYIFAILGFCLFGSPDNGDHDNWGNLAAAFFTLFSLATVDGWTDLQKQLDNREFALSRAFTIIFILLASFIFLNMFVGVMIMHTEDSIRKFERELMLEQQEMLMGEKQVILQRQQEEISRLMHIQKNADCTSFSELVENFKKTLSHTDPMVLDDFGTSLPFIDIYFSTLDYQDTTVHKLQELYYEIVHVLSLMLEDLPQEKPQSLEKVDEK
# Chain of CatSper (Q7RTX7 whole entry, the tested form may be a part): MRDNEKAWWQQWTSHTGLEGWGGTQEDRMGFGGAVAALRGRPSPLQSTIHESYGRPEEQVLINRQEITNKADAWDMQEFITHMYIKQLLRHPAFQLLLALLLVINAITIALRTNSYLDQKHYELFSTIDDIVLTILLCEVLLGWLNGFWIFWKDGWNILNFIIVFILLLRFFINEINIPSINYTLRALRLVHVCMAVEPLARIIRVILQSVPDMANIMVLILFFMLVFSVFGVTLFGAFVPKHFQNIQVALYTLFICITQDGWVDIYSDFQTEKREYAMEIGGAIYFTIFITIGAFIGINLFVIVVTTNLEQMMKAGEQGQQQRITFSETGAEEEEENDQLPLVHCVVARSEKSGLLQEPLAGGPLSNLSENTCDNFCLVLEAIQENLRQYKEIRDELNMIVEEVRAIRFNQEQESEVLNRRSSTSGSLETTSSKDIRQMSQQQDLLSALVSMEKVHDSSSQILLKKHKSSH
SMILES,whole-cell patch clamp of human spermatozoa (CatSper),monoacylglycerol hydrolysis by recombinant ABHD2 (free glycerol production) with [1]
"CCCCC/C=C\C/C=C\C/C=C\C/C=C\CCCC(=O)OCC(O)CO (centres unmarked) [1AG, 1-arachidonoylglycerol]",whereas 1AG and 2AG (AGs) inhibited ICatSper,–
"CCCCC/C=C\C/C=C\C/C=C\C/C=C\CCCC(=O)OC(CO)CO [2AG, 2-arachidonoylglycerol]",–,"ABHD2, which metabolizes endocannabinoids 1AG and 2AG only in the presence of progesterone"
